Reference: patent US20040175773A1, “Screening method based on siah-numb interaction” (priority 2000, published 2004)
Where a SMILES comes first, the peptide text is derived from it. The star is where a group is joined. Cbz = O=C(OCc1ccccc1)*

What was measured:
[1] = system: Notch1 nuclear translocation in U937 cells; conditions: 10 mM EDTA in PBS at 37° C. for 30 min; labelled 30 min (T=30) after removing the EDTA
Experimental: A. Stable U937 transfectants which were expressing either the control vector (panels 1 to 3) or Siah-1 (panels 4 to 7) were analysed using a confocal microscope for the endogenous immunofluorescence of Notch1. The cells were labelled with an antibody which recognized the cytoplasmic portion of human Notch1, followed by an FITC-conjugated secondary antibody. The Notch immunofluorescence analysis is related either to low magnification (panels 1 and 4) or to high magnification (panels 2, 3, 5, 6 and 7). […] The labelling with propidium iodide was included in order to better visualize the nuclear labelling of Notch1 (panels 3, 6 and 7). […] The bar represents a length of 5 μm.
Cells were incubated in 10 mM EDTA containing PBS at 37° C. for 30 min, and then washed and labelled with anti-Notch1 (intracellular) antibodies either immediately (T=0) or 30 min (T=30) after removing the EDTA. The cells were counterlabelled with propidium iodide in order to visualize the nucleus.

[2] = system: quantity of Numb protein in 293T cells; experiment: Western blot of Numb protein in transfected 293T cells with or without proteasome inhibitor; type: cell-based, human; conditions: 293T cells cotransfected with Numb, Siah-1 +/- Mdm2; 50 μM MG132 for 6 hours; anti-Numb Western blot, FIG. 2B lanes 6, 7 and 8
Experimental: FIG. 2: Analysis of the effect of the in vivo interaction between Siah and Numb on the levels at which the proteins are expressed. FIG. 2.A. 293T cells were cotransfected with an empty expression vector (column 1) or expressing Numb (column 2), Siah-1 (column 3), Numb and Siah-1 (column 4), Numb and Mdm2 (column 5), and Numb, Siah-1 and Mdm2 (column 6). 48 hours after transfection, a Western blot analysis was carried out using an anti-Numb antibody. A control was also performed using an anti-GFP (green fluorescent protein) antibody as a loading standard on the gel. FIG. 2.B. The Western blot was analysed as previously described in the absence or presence of an inhibitor of the ubiquitin proteasome (MG 132). Without MG 132, the quantity of Numb protein decreases in the presence of Siah-1, with or without Mdm2 (lanes 2, 3 and 4). […]
The cell lysates were separated by SDS-PAGE gel electrophoresis and transferred to a nitrocellulose membrane (Biorad), with this being followed by a Western blot analysis using the Numb polyclonal antibody (Weizmann Institute, Ref. 3465, or reference N80220 from Transduction Laboratories) and the anti-GFP monoclonal antibody (Boehringer, Ref. 1814460) in order to verify standardization of the quantities which were loaded onto the gel. […]

Structure (SMILES) | nuclear translocation of Notch1 [1] | quantity of Numb protein in the presence of Siah-1, with or without Mdm2 [2]
O=C(O)CN(CCN(CC(=O)O)CC(=O)O)CC(=O)O [EDTA] | positive Notch1 labelling in the nucleus | 
CC(C)C[C@@H](C=O)NC(=O)[C@H](CC(C)C)NC(=O)[C@H](CC(C)C)NC(=O)OCc1ccccc1 [MG 132] (Cbz-Leu-Leu-Leu-aldehyde) |  | remains constant
